Entries after “also recorded” stand apart in the source; their conditions may differ.
What was measured:
Human Xa [1] = target: T1, Human Xa (Homo sapiens, UniProt P00742); assay: Fluorophore-protein ratios by absorbance; assay type: binding; conditions: isolated labeled protein
T1 construct: from tissue; host or cells: fresh frozen human plasma

bovine Xa = bovine Xa (Bos taurus, UniProt P00743); assay: Fluorophore-protein ratios by absorbance; assay type: binding; conditions: isolated labeled protein
Chain of bovine Xa (P00743 234-492 limits assumed): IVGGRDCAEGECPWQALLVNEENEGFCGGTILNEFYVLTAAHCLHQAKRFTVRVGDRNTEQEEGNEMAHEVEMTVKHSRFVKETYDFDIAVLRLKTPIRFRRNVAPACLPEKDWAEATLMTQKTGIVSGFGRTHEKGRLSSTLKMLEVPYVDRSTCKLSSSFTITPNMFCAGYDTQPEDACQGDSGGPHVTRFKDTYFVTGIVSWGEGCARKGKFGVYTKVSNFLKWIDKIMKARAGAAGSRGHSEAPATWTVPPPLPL
Chain of bovine Xa (P00743 41-180 partner limits assumed): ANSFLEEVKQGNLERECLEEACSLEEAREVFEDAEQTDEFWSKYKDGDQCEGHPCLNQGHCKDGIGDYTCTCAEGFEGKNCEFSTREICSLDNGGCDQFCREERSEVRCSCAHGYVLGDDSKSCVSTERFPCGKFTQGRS

thrombin = target: T2, thrombin (Homo sapiens, UniProt P00734); assay: Blocking of the reaction of thrombin with synthetic substrate S2238; assay type: biochemical; conditions: solution in 1.0 mM HCl
T2 construct: from tissue; host or cells: fresh frozen human plasma
Description: FPRck.2HCl (Calbiochem) (5.0 mg, […]) was dissolved in methanol (1.0 mL) and treated with 2,6-dansyl chloride (Molecular Probes) (2.6 mg, 9.5 μmoles) in DMF (1.0 mL). The solution was mixed and treated with 4-methylmorpholine (20 μL, 16 μmoles). After 20 minutes at 25° C., the reaction was stopped by addition of 1.0 M HCl (100 μL) and the mixture was applied directly to a SEPHADEX LH-20 column (1×30 cm, in methanol). The elution was followed by fluorescence, A280, Sakaguchi stain and thin layer chromatography. The product appeared as a single fluorescent, Sakaguchi positive spot Rf =0.14 (2:1 chloroform:methanol on Bakerflex silica gel). The pooled sample was evaporated to an oil and taken up in 1.0 mM HCl. […] The solution was lyophilized to an oil which was taken up in 10.0 mM HCl (3.8 mL) and frozen. Final concentration (determined by A360) was 1.0 mM. Yield was 3.8 μmoles or 40%.
Factor Xa: In a one mL cuvette, 22.5 μM S2222 in Hepes/saline pH=7.4 was treated with 1-10 μL of the factor Xa preparation. The mixture was stirred briefly and the absorbance at 405 nm followed in a Cary 219 UV/visible spectrophotometer. The rate was taken for the initial linear phase. Similar methods were used for thrombin (S2238), plasmin (S2251) and tPA (S2238). Hemker, H. C. (1983) in Handbook of Synthetic Substrates: For the Coagulation and Fibrinolytic Systems. Martinus Nijhogg Publishers, Boston.

tissue factor = tissue factor (Homo sapiens, UniProt P13726); assay: Blocking of tissue factor, tissue factor specific activity; assay type: biochemical
Chain of tissue factor (P13726 33-295): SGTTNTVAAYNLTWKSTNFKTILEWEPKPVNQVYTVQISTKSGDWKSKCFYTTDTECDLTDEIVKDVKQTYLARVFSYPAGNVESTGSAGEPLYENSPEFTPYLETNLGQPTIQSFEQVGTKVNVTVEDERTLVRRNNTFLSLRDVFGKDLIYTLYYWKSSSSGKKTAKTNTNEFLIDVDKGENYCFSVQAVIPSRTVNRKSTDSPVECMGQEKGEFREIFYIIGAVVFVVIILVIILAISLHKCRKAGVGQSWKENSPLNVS

factor VIIa (hVIIa) = target: T3, factor VIIa (hVIIa) (Homo sapiens, UniProt P08709); assay: Screening of protein/BC-PPACK reactions, avidin-biotin-peroxidase blot; assay type: binding; conditions: 10 fold molar excess twice, overnight
T3 construct: Human factor VII was converted to VIIa by incubation for 1 hour with a 0.2% (w/w) aliquot of human Xa; from tissue; host or cells: fresh frozen human plasma; VII converted to VIIa with human Xa, or VIIa already present in the isolate
T3 sequence (P08709 213-466 limits assumed): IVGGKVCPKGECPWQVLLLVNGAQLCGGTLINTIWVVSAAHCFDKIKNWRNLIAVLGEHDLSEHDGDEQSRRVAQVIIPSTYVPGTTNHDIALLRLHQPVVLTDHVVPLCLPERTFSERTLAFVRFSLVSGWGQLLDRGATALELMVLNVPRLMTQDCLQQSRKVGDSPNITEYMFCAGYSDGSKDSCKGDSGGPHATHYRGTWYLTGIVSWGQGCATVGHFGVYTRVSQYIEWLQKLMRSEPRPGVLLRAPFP
T3 sequence (P08709 61-212 partner limits assumed): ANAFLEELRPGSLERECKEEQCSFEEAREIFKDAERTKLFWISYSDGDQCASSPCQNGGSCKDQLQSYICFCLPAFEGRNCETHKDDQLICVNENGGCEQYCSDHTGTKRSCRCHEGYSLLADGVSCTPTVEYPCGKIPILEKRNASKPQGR
Description: (§1) Samples of purified enzymes, zymogens, or enzyme-zymogen mixtures were treated with BC-PPACK as follows: 10-30 μg samples of protein at 0.5 mg/mL in Hepes (20 mM)/NaCl (150 mM) pH=7.4 was reacted with 10 fold molar excess of BC-PPACK for 30 minutes, followed by a second 10 fold aliquot and overnight incubation at room temperature. Samples were then reduced with 2-mercapto-ethanol and prepared for PAGE gel electrophoresis either on 12×12 cm or PhastGel systems. After electrophoresis, the gels were blotted to nitrocellulose using tris/glycine methanol transfer buffer. The nitrocellulose was then blocked with TWEEN reagent, washed with tris/glycine and reacted with avidin-biotin-peroxidase. Development with 4-chloronapthtalene visualized the biotinylated proteins.

factor Xa (hXa) = target: T4, factor Xa (hXa) (Homo sapiens, UniProt P00742); assay: as above; assay type: binding; conditions: 10 fold molar excess twice, overnight
T4 construct: from tissue; host or cells: fresh frozen human plasma
T4 sequence (P00742 235-488 limits assumed): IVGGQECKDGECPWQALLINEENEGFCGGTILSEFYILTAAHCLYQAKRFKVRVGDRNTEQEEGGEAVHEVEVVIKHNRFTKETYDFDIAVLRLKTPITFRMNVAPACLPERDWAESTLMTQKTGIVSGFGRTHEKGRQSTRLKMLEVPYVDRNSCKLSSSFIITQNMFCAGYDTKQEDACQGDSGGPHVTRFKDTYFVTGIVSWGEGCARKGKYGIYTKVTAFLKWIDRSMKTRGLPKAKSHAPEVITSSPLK
T4 sequence (P00742 41-179 partner limits assumed): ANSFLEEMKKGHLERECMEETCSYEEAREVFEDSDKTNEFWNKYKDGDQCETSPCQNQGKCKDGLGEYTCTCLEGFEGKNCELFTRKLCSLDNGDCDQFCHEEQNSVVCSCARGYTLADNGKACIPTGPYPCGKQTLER
Description: as §1

hII = target: T5, hII (Homo sapiens, UniProt P00734); assay: as above; assay type: binding; conditions: zymogen; 10 fold molar excess twice, overnight
T5 construct: Except as noted, all proteins were isolated from fresh frozen human plasma; from tissue; host or cells: fresh frozen human plasma
Description: as §1

hPg = target: T6, hPg (Homo sapiens, UniProt P00747); assay: as above; assay type: binding; conditions: zymogen; 10 fold molar excess twice, overnight
T6 construct: Plasminogen was isolated by passing thawed, aprotinin treated plasma over lysine-Sepharose; from tissue; host or cells: human plasma (lysine-Sepharose)
T6 sequence (P00747 20-810 limits assumed): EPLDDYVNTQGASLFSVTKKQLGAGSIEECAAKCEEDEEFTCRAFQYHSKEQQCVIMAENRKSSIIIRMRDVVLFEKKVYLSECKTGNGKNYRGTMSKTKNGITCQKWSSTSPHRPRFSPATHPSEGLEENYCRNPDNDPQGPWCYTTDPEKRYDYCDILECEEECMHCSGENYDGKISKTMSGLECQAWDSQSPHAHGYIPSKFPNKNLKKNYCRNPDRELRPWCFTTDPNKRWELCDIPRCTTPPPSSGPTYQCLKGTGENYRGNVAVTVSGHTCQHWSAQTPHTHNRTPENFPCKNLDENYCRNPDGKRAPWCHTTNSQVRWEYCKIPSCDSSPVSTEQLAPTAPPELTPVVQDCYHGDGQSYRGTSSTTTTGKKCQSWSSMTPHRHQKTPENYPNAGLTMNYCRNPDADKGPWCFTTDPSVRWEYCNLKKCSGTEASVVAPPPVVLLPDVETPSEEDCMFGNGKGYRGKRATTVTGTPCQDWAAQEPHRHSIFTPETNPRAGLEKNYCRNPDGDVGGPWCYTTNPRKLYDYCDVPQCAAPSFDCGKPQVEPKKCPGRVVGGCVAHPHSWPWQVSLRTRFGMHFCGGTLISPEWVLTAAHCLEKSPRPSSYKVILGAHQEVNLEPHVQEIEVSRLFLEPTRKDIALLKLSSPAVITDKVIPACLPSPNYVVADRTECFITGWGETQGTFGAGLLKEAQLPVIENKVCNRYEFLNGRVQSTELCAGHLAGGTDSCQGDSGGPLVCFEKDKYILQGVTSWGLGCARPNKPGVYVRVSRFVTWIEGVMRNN
Description: as §1

hVII = target: T7, hVII (Homo sapiens, UniProt P08709); assay: as above; assay type: binding; conditions: zymogen; 10 fold molar excess twice, overnight
T7 construct: Except as noted, all proteins were isolated from fresh frozen human plasma; from tissue; host or cells: fresh frozen human plasma
T7 sequence (P08709 61-466): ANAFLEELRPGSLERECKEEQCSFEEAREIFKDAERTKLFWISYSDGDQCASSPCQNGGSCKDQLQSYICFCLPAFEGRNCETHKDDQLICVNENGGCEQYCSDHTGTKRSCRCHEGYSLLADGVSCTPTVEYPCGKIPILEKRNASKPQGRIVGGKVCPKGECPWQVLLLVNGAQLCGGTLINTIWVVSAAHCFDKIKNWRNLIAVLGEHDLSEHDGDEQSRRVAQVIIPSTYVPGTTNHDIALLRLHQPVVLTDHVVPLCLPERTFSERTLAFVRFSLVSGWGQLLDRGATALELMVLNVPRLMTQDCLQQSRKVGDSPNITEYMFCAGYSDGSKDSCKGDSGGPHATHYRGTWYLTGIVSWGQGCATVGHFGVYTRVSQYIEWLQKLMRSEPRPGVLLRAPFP
Description: as §1

hX = target: T8, hX (Homo sapiens, UniProt P00742); assay: as above; assay type: binding; conditions: zymogen; 10 fold molar excess twice, overnight
T8 construct: Except as noted, all proteins were isolated from fresh frozen human plasma; from tissue; host or cells: fresh frozen human plasma
T8 sequence (P00742 183-488 limits assumed): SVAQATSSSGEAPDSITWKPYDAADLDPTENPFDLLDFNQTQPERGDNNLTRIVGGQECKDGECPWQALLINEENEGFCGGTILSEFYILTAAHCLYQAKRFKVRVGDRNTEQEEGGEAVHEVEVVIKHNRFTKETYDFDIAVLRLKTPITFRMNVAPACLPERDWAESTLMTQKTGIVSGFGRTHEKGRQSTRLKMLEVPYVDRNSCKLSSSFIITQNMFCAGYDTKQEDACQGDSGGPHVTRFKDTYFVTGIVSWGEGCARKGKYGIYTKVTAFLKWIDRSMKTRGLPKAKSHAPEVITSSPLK
T8 sequence (P00742 41-179 partner limits assumed): as the sequence (P00742 41-179 partner limits assumed) above
Description: as §1

plasmin (hPm) = target: T9, plasmin (hPm) (Homo sapiens, UniProt P00747); assay: as above; assay type: binding; conditions: 10 fold molar excess twice, overnight
T9 construct: Plasmin was prepared from plasminogen by treatment with 1:200 (weight:weight) of urokinase; from tissue; host or cells: human plasma (lysine-Sepharose)
T9 sequence (P00747 581-810 limits assumed): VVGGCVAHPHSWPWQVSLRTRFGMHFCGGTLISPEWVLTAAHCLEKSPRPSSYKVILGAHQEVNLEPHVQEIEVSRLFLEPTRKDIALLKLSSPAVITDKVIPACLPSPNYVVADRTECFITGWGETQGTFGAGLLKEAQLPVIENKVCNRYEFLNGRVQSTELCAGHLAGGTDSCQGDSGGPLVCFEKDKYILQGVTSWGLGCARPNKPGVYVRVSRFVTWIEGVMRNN
T9 sequence (P00747 97-580 partner limits assumed): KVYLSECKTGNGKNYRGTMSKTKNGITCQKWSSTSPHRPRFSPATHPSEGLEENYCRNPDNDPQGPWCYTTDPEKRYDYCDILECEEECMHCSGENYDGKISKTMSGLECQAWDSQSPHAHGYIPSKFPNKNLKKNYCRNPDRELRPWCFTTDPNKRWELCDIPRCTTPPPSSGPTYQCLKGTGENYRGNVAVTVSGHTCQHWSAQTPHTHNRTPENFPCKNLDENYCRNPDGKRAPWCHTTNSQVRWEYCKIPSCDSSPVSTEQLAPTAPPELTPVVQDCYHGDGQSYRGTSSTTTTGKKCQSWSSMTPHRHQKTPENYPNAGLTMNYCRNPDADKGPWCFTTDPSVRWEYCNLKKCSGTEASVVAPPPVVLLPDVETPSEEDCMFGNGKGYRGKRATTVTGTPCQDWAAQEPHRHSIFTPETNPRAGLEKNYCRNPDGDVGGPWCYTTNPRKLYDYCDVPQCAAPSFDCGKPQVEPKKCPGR
Description: as §1

thrombin (hIIa) = target: T10, thrombin (hIIa) (Homo sapiens, UniProt P00734); assay: as above; assay type: binding; conditions: 10 fold molar excess twice, overnight
T10 construct: from tissue; host or cells: fresh frozen human plasma
Description: as §1

[2] = test system: tissue plasminogen activator (tTPA) (1 and 2 chain); assay: as above; assay type: binding, human; conditions: 10 fold molar excess twice, overnight
Chain of tissue plasminogen activator (tTPA) (1 and 2 chain) (P00750 311-562 limits assumed): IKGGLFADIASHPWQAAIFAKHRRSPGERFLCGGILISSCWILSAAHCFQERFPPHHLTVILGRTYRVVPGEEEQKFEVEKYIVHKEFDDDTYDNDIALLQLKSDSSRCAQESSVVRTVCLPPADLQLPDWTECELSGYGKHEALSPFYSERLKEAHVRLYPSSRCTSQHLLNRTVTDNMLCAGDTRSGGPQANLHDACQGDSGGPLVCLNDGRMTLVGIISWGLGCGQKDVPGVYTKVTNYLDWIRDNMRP
Description: as §1
Plasminogen was isolated by passing thawed, aprotinin treated plasma over lysine-Sepharose and eluting the bound plasminogen with ε-aminocaproic acid (ECAC) (Castellino, F. J. and Powell, J. R. (1980) Methods Enzymol. 80:365-378). A second pass over the lysine SEPHAROSE gel, followed by separation from aprotinin on SEPHAROSE gel G-100 gave plasminogen which was homogeneous when evaluated by gel electrophoresis. Plasmin was prepared from plasminogen by treatment with 1:200 (weight:weight) of urokinase in Hepes/saline. Tissue plasminogen activator (tPA) was recombinant human tPA (Genentech) and contained both single chain and two chain forms. Urokinase was a generous gift from Dr. David Stump and was two chain.

avidin = avidin (Gallus gallus, UniProt P02701); assay: Avidin-biotin interaction (fluorescein-avidin, avidin-acrylic, avidin-peroxidase blotting); conditions: free compound, column fractions in 1.0 mM HCl
Chain of avidin (P02701 25-152): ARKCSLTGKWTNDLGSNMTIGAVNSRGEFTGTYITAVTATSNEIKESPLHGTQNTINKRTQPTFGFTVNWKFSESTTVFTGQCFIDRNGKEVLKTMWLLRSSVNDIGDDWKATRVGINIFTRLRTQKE

activated human plasma = assay: Reaction of activated human plasma with BC-YGR-CK, blot; conditions: thromboplastin and Ca+2 (4 mM) activated plasma, timed aliquots, final CK concentration 1.2 μM
Description: Normal human plasma (200 μL) at 37° C. was activated with thromboplastin (10 μL) and Ca^+2 (4 mM). At timed intervals, 20 uL aliquots were removed and added to 2 μL aliquots of […] BC-YGR-CK (final CK concentration was 1.2 μM). A clot was observed after 122 seconds. The samples were then run on PhastGel electrophoresis and blotted to nitrocellulose.

factor VIIa = target: T11, factor VIIa (Homo sapiens, UniProt P08709); assay: Removal of active enzyme from zymogen with biotinylated chloromethyl ketone and avidin matrix; conditions: human factor VII containing factor VIIa; listed as BioCap-YGRck
T11 construct: Human factor VII was converted to VIIa by incubation for 1 hour with a 0.2% (w/w) aliquot of human Xa; from tissue; host or cells: fresh frozen human plasma; VII converted to VIIa with human Xa, or VIIa already present in the isolate
T11 sequence (P08709 213-466 limits assumed): T3 sequence (P08709 213-466 limits assumed)
T11 sequence (P08709 61-212 partner limits assumed): T3 sequence (P08709 61-212 partner limits assumed)

Human Xa [3] = target: T1, Human Xa; assay: Reaction of Human Xa with BC-PPACK, residual activity vs. S2222; assay type: biochemical

T1 sequence (P00742 235-488 limits assumed): as the sequence (P00742 235-488 limits assumed) above
T1 sequence (P00742 41-179 partner limits assumed): as the sequence (P00742 41-179 partner limits assumed) above

Compound	biotinylated protein on blot (factor VIIa (hVIIa))	biotinylated protein on blot (factor Xa (hXa))	biotinylated protein on blot (hII)	biotinylated protein on blot (hVII)	biotinylated protein on blot (hX)	biotinylated protein on blot (thrombin (hIIa))	biotinylated protein on blot [2]	also measured
5 (and 6) Carboxylfluoresceinyl-L-glutamylglycyl-L-arginine chloromethyl ketone hydrochloride [Fluoresceinyl-EGRCk]	–	–	–	–	–	–	–	Fluorophore/Protein (Human Xa [1]): 1.06 mole/mole; Fluorophore/Protein (bovine Xa): 1.02 mole/mole
CN(C)c1ccc2cc(S(=O)(=O)N[C@H](Cc3ccccc3)C(=O)N3CCC[C@H]3C(=O)N[C@@H](CCCNC(=N)N)C(=O)CCl)ccc2c1.Cl [2,6-dansyl-FPRck.HCl, 6-Dimethylaminonapthalene-2-sulfonyl-D-phenylalanyl-L-prolyl-L-arginine chloromethyl ketone hydrochloride]	–	–	–	–	–	–	–	blocking of reaction of thrombin with S2238 (thrombin): rapidly blocked
NC(N)=NCCC[C@H](NC(=O)[C@@H]1CCCN1C(=O)[C@H](N)Cc1ccccc1)C(=O)CCl [FPRck]	–	–	–	–	–	–	–	decrease of specific activity of tissue factor (tissue factor; 1.0 mM, 24 hours): 10-20%
O=C(O)c1cc[c]([Hg][Cl])cc1 [p-chloromercuribenzoate]	–	–	–	–	–	–	–	decrease of specific activity of tissue factor (tissue factor; 100 µM, 2 hours): 10-20%
Biotinyl-D-phenylalanyl-L-prolyl-L-arginine Chloromethyl Ketone [Biotinyl-PPACK]	none of the proteins showed a positive blot	none of the proteins showed a positive blot	none of the proteins showed a positive blot	none of the proteins showed a positive blot	none of the proteins showed a positive blot	none of the proteins showed a positive blot	none of the proteins showed a positive blot	biotinylated protein on blot (hPg): none of the proteins showed a positive blot; biotinylated protein on blot (plasmin (hPm)): none of the proteins showed a positive blot; enhancement of the fluorescence of fluorescein-avidin (avidin): positive
Biotinyl-ε-aminocaproyl-L-tyrosylglycyl-L-arginine chloromethyl ketone [BC-YGR-CK]	Identical results	Identical results	Identical results	Identical results	Identical results	Identical results	Identical results	biotinylated proteins on blot of activated plasma (activated human plasma): several biotinylated proteins; factor VIIa remaining after treatment and avidin matrix, gel analysis (factor VIIa): no factor VIIa remained; also recorded: no contamination with factor VIIa
biotinyl-ε-aminocaproyl-D-phenylalanyl-L-prolyl-L-arginine chloromethyl ketone [BC-PPACK]	positive	positive	No reaction	No reaction	No reaction	positive	positive	relative activity (vs. S2222) (Human Xa [3]; 0.46 equivalents added): 0.62; relative activity (vs. S2222) (Human Xa [3]; 0.92 equivalents added): 0.13; relative activity (vs. S2222) (Human Xa [3]; 1.38 equivalents added): 0.01; relative activity (vs. S2222) (Human Xa [3]; 1.84 equivalents added): 0.00; relative activity (vs. S2222) (Human Xa [3]; 2.76 equivalents added): 0.00; biotinylated protein on blot (hPg): No reaction; biotinylated protein on blot (plasmin (hPm)): positive

From patent US6242173A, “Immunoassays for catalytically-active, serine proteases” (University of Vermont and State Agriculatural College, priority 1992, dated 2001)
